Test results taken from patent US11180462B2, “Microbiocidal oxadiazole derivatives” (SYNGENTA PARTICIPATIONS AG, priority 2015, dated 2021).

Experiments:
[1] = test system: Puccinia recondita f. Sp. Tritici; test: Fungicidal activity against Puccinia recondita f. sp. tritici / wheat / leaf disc preventative (brown rust); assay type: in vivo; conditions: foliar, 200 ppm in the applied formulation, wheat leaf segments, preventative, compared to untreated control leaf disks, read-out: disease control
In short: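 200 ppm spray on wheat cv. Kanzler leaf segments; spore inoculation +1 day; 19° C., 75% rh, 12 h/12 h light cycle; single rating of % control vs untreated at 7 to 9 days.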

[2] = test system: Puccinia recondita f. Sp. Tritici; test: Fungicidal activity against Puccinia recondita f. sp. tritici / wheat / leaf disc curative (brown rust); assay type: in vivo; conditions: foliar, 24 h, 200 ppm in the applied formulation, wheat leaf segments, curative (applied 1 day after inoculation), compared to untreated control leaf disks, read-out: disease control
In short: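 Inoculate cv. Kanzler segments on agar; hold dark, 19° C, 75% RH. Spray diluted formulated compound at day 1. Incubate 12 h light/12 h dark, same temperature and humidity; score % control vs untreated 6–8 days later.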

Phakopsora Pachyrhizi = test: Fungicidal activity against Phakopsora pachyrhizi / soybean / leaf disc preventative (Asian soybean rust); assay type: in vivo; conditions: foliar, 200 ppm in the applied formulation, soybean leaf disks, compared to untreated control leaf disks, read-out: disease control
In short: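 Scored 12 to 14 days post-application as percent control relative to untreated check discs, rust spores were sprayed under the disc one day after compound treatment. Incubation: 20°C, 75% rh, first 24–36 h in darkness, then 12 h daily light; discs kept on water agar.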

[3] = test system: Glomerella lagenarium (Colletotrichum lagenarium); test: Fungicidal activity against Glomerella lagenarium (Colletotrichum lagenarium) liquid culture / cucumber / preventative (anthracnose); assay type: cell-based; conditions: Colletotrichum orbiculare; 20 ppm in the applied formulation; liquid culture (PDB), growth inhibition measured photometrically after 3 to 4 days; compared to untreated control; read-out: disease control
In short: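 Percent activity against the untreated check was derived from photometric growth measurements made 2 to 7 days after conidia in potato dextrose broth were combined with compound at 20 ppm. Cultures were kept dark at 24 °C and 96% humidity.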

CC(=O)N(Cc1ccc(-c2noc(C(F)(F)F)n2)cc1)CC(F)(F)F [Compound 1.705, N-(2,2,2-trifluoroethyl)-N-[[4-[5-(trifluoromethyl)-1,2,4-oxadiazol-3-yl]phenyl]methyl]-acetamide]
≥ 80%: pest or weed control at 200 ppm [1] | pest or weed control at 200 ppm [2] | pest or weed control at 200 ppm (Phakopsora Pachyrhizi) | inhibition of growth at 20 ppm [3]

CNC(=O)N(Cc1ccc(-c2noc(C(F)(F)F)n2)c(F)c1)OC [Compound 3.44, 1-[[3-fluoro-4-[5-(trifluoromethyl)-1,2,4-oxadiazol-3-yl]phenyl]methyl]-1-methoxy-3-methyl-urea]
≥ 80%: pest or weed control at 200 ppm [1] | pest or weed control at 200 ppm [2] | pest or weed control at 200 ppm (Phakopsora Pachyrhizi) | inhibition of growth at 20 ppm [3]

CCC(=O)ON(Cc1ccc(-c2noc(C(F)(F)F)n2)cc1)C(=O)CC [Compound 1.760, [propanoyl-[[4-[5-(trifluoromethyl)-1,2,4-oxadiazol-3-yl)phenyl]methyl]-amino] propanoate]
≥ 80%: pest or weed control at 200 ppm [1] | pest or weed control at 200 ppm [2] | pest or weed control at 200 ppm (Phakopsora Pachyrhizi) | inhibition of growth at 20 ppm [3]

CC1(C(=O)N(Cc2ccc(-c3noc(C(F)(F)F)n3)cc2)CC2CC2)COC1 [Compound 1.235, N-(cyclopropylmethyl)-3-methyl-N-[[4-[5-(trifluoromethyl)-1,2,4-oxadiazol-3-yl]phenyl]methyl]-oxetane-3-carboxamide]
≥ 80%: pest or weed control at 200 ppm [1] | pest or weed control at 200 ppm [2] | pest or weed control at 200 ppm (Phakopsora Pachyrhizi) | inhibition of growth at 20 ppm [3]

COCCC(=O)N(Cc1ccc(-c2noc(C(F)(F)F)n2)cc1)C1CC1 [Compound 1.106, N-cyclopropyl-3-methoxy-N-[[4-[5-(trifluoromethyl)-1,2,4-oxadiazol-3-yl]phenyl]methyl]-propanamide]
≥ 80%: pest or weed control at 200 ppm [1] | pest or weed control at 200 ppm [2] | pest or weed control at 200 ppm (Phakopsora Pachyrhizi) | inhibition of growth at 20 ppm [3]

O=C(C1CCC1)N(Cc1ccc(-c2noc(C(F)(F)F)n2)cc1)C1CC1 [Compound 1.112, N-cyclopropyl-N-[[4-[5-(trifluoromethyl)-1,2.4-oxadiazol-3-yl]phenyl]methyl]-cyclobutane-carboxamide]
≥ 80%: pest or weed control at 200 ppm [1] | pest or weed control at 200 ppm [2] | pest or weed control at 200 ppm (Phakopsora Pachyrhizi) | inhibition of growth at 20 ppm [3]

CCC(C)NC(=O)N(Cc1ccc(-c2noc(C(F)(F)F)n2)cc1)OC (centres unmarked) [Compound 3.9, 1-methoxy-3-sec-butyl-1-[[4-[5-(trifluoromethyl)-1,2,4-oxadiazol-3-yl]phenyl]methyl]urea]
≥ 80%: pest or weed control at 200 ppm [1] | pest or weed control at 200 ppm [2] | pest or weed control at 200 ppm (Phakopsora Pachyrhizi) | inhibition of growth at 20 ppm [3]

CCON(Cc1ccc(-c2noc(C(F)(F)F)n2)cc1)C(=O)C1CC1C (centres unmarked) [Compound 1.620]
≥ 80%: pest or weed control at 200 ppm [1] | pest or weed control at 200 ppm [2] | pest or weed control at 200 ppm (Phakopsora Pachyrhizi) | inhibition of growth at 20 ppm [3]

O=C(C1CCOC1)N(O)Cc1ccc(-c2noc(C(F)(F)F)n2)cc1 (centres unmarked) [Compound 1.756, N-hydroxy-N-[[4-[5-(trifluoromethyl)-1,2,4-oxadiazol-3-yl]phenyl]methyl]-tetrahydrofuran-3-carboxamide]
≥ 80%: pest or weed control at 200 ppm [1] | pest or weed control at 200 ppm [2] | pest or weed control at 200 ppm (Phakopsora Pachyrhizi) | inhibition of growth at 20 ppm [3]

COCCC(=O)N(CCOC)Cc1ccc(-c2noc(C(F)(F)F)n2)cc1 [Compound 1.335, 3-methoxy-N-(2-methoxyethyl)-N-[[4-[5-(trifluoromethyl)-1,2,4-oxadiazol-3-yl]phenyl]methyl]-propanamide]
≥ 80%: pest or weed control at 200 ppm [1] | pest or weed control at 200 ppm [2] | pest or weed control at 200 ppm (Phakopsora Pachyrhizi) | inhibition of growth at 20 ppm [3]

CCN(Cc1ccc(-c2noc(C(F)(F)F)n2)cc1)C(=O)NC1CC1 [Compound 3.53, 3-cyclopropyl-1-ethyl-1-[[4-[5-(trifluoromethyl)-1,2,4-oxadiazol-3-yl]phenyl]methyl]urea]
≥ 80%: pest or weed control at 200 ppm [1] | pest or weed control at 200 ppm [2] | pest or weed control at 200 ppm (Phakopsora Pachyrhizi) | inhibition of growth at 20 ppm [3]

C#CCN(Cc1ccc(-c2noc(C(F)(F)F)n2)cc1)C(=O)C(C)CC (centres unmarked) [Compound 1.191, 2-methyl-N-prop-2-ynyl-N-[[4-[5-(trifluoromethyl)-1,2,4-oxadiazol-3-yl]phenyl]methy]-butanamide]
≥ 80%: pest or weed control at 200 ppm [1] | pest or weed control at 200 ppm [2] | pest or weed control at 200 ppm (Phakopsora Pachyrhizi) | inhibition of growth at 20 ppm [3]

CCC(=O)N(Cc1ccc(-c2noc(C(F)(F)F)n2)cc1)C(C)CC (centres unmarked) [Compound 1.389, N-sec-butyl-N-[[4-[5-(trifiuoromethyl)-1,2,4-oxadiazol-3-yl]phenyl]methyl]-propanamide]
≥ 80%: pest or weed control at 200 ppm [1] | pest or weed control at 200 ppm [2] | pest or weed control at 200 ppm (Phakopsora Pachyrhizi) | inhibition of growth at 20 ppm [3]

COC(C)C(=O)N(Cc1ccc(-c2noc(C(F)(F)F)n2)cc1)C(C)C (centres unmarked) [Compound 1.685, N-isopropyl-2-methoxy-N-[[4-[5-(trifluoromethyl)-1,2,4-oxadiazol-3-yl]phenyl]methyl]-propanamide]
≥ 80%: pest or weed control at 200 ppm [1] | pest or weed control at 200 ppm [2] | pest or weed control at 200 ppm (Phakopsora Pachyrhizi) | inhibition of growth at 20 ppm [3]

CON(Cc1ccc(-c2noc(C(F)(F)F)n2)cc1)C(=O)C1CCSCC1 [Compound 1.46, N-methoxy-N-[[4-[5-(trifluoromethyl)-1,2,4-oxadiazol-3-yl]phenyl]methyl] tetrahydrothiopyran-4-carboxamide]
≥ 80%: pest or weed control at 200 ppm [1] | pest or weed control at 200 ppm [2] | pest or weed control at 200 ppm (Phakopsora Pachyrhizi) | inhibition of growth at 20 ppm [3]

C=CCNC(=O)N(Cc1ccc(-c2noc(C(F)(F)F)n2)cc1)OC [Compound 3.20, 3-allyl-1-methoxy-1-[[4-[5-(trifluoromethyl)-1,2,4-oxadiazol-3-yl]phenyl]methyl]urea]
≥ 80%: pest or weed control at 200 ppm [1] | pest or weed control at 200 ppm [2] | pest or weed control at 200 ppm (Phakopsora Pachyrhizi) | inhibition of growth at 20 ppm [3]

CON(Cc1ccc(-c2noc(C(F)(F)F)n2)cc1)C(=O)C1(C)CC1(Cl)Cl (centres unmarked) [Compound 1.32, 2,2-dichloro-N-methoxy-1-methyl-N-[[4-[5-(trifluoromethyl)-1,2,4-oxadiazol-3-yl]phenyl]methyl]-cyclopropane-carboxamide]
≥ 80%: pest or weed control at 200 ppm [1] | pest or weed control at 200 ppm [2] | pest or weed control at 200 ppm (Phakopsora Pachyrhizi) | inhibition of growth at 20 ppm [3]

C=CCN(Cc1ccc(-c2noc(C(F)(F)F)n2)cc1)C(=O)COC [Compound 1.479, N-allyl-2-methoxy-N-[[4-[5-(trifluoromethyl)-1,2,4-oxadiazol-3-yl]phenyl]methyl]-acetamide]
≥ 80%: pest or weed control at 200 ppm [1] | pest or weed control at 200 ppm [2] | pest or weed control at 200 ppm (Phakopsora Pachyrhizi) | inhibition of growth at 20 ppm [3]

COCCC(=O)N(Cc1ccc(-c2noc(C(F)(F)F)n2)cc1)C(C)C [Compound 1.674, N-isopropyl-3-methoxy-N-[[4-[5-(trifluoromethyl)-1,2,4-oxadiazol-3-yl]phenyl]methyl]-propanamide]
≥ 80%: pest or weed control at 200 ppm [1] | pest or weed control at 200 ppm [2] | pest or weed control at 200 ppm (Phakopsora Pachyrhizi) | inhibition of growth at 20 ppm [3]

CON(Cc1ccc(-c2noc(C(F)(F)F)n2)cn1)C(=O)C1CCCO1 (centres unmarked) [Compound 1.569, N-methoxy-N-[[5-[5-(trifiuoromethyl)-1,2,4-oxadiazol-3-yl]-2-pyridyl]methyl]-tetrahydrofuran-2-carboxamide]
≥ 80%: pest or weed control at 200 ppm [1] | pest or weed control at 200 ppm [2] | pest or weed control at 200 ppm (Phakopsora Pachyrhizi) | inhibition of growth at 20 ppm [3]
